Paper PMC6615261, “Repurposing Azithromycin and Rifampicin Against Gram-Negative Pathogens by Combination With Peptidomimetics” (Frontiers in Cellular and Infection Microbiology, 2019)
Each block holds one compound with its values, some of them ahead of it.

Columns and labels:
[1] = test system: K. pneumoniae ST258; test: Potentiation of additional antibiotics (COMPAN1F plates), MIC; format: cell-based, Klebsiella pneumoniae; details: for MIC of antibiotic in presence of peptidomimetic 1: + 1 μM peptidomimetic 1; for MIC of antibiotic in presence of peptidomimetic 15: + 1 μM peptidomimetic 15; for MIC of antibiotic in presence of peptidomimetic 26: + 1 μM peptidomimetic 26; for MIC: Klebsiella pneumoniae, read-out: MIC of antibiotic alone
Protocol: (§1) Minimal inhibitory concentrations (MICs) of peptidomimetics, antibiotics and their combinations were determined by broth microdilution according to the Clinical Laboratory Standards Institute performance standards (Clinical and Laboratory Standards Institute, [2013]). […] Since rifampicin and azithromycin mainly are used to treat infections with Gram-positive pathogens only CLSI clinical breakpoints were available for such bacteria. […] Potentiation of additional antibiotics by peptidomimetics was determined by using commercial 96-well plates containing varied concentrations of standard antibiotics (COMPAN1F; Trek Diagnostic Systems Inc.). The peptidomimetics were added immediately prior to inoculation with pathogen, and then MICs were determined as above. The MICs of peptidomimetic/antibiotic combinations were determined according to the method above, and the concentration ratios were selected based upon checkerboard results with 2:1 and 1:4 ratio of peptidomimetic with rifampicin or azithromycin, respectively. Minimal bactericidal concentrations (MBCs) were determined by using growth-curve assay plates. MIC plates were prepared as above, and then the plates were incubated at 37°C with continuous shaking. Growth was recorded at 10 min intervals as optical density (OD) at 600 nm during 24 h. At 24 h, for wells without growth, a sample was diluted 10-fold in sterile saline (0.9% sodium chloride) and plated onto MHA, following CLSI guidelines (Clinical and Laboratory Standards Institute, [1999]).

[2] = test system: E. coli ST131; test: as above; format: cell-based, Escherichia coli; details: for MIC of antibiotic in presence of peptidomimetic 26: + 0.25 μM peptidomimetic 26; for MIC of antibiotic in presence of peptidomimetic 1: + 0.5 μM peptidomimetic 1; for MIC of antibiotic in presence of peptidomimetic 15: + 0.5 μM peptidomimetic 15; for MIC of antibiotic alone / MIC: no peptidomimetic; for MIC: Escherichia coli, read-out: MIC of antibiotic alone
Protocol: as §1

Structure (SMILES): CO/N=C(/C(=O)N[C@@H]1C(=O)N2C(C(=O)O)=C([C@@H]3CCCO3)CS[C@H]12)c1csc(N)n1 [Cefovecin]
MIC of antibiotic in presence of peptidomimetic 1 [1]: >8 µg/mL
MIC of antibiotic in presence of peptidomimetic 15 [1]: >8 µg/mL
MIC of antibiotic in presence of peptidomimetic 26 [1]: >8 µg/mL
MIC of antibiotic alone ([1]; no peptidomimetic): >8 µg/mL
MIC of antibiotic in presence of peptidomimetic 26 [2]: >8 µg/mL
MIC of antibiotic in presence of peptidomimetic 1 [2]: >8 µg/mL
MIC of antibiotic in presence of peptidomimetic 15 [2]: >8 µg/mL
MIC of antibiotic alone [2]: >8 µg/mL

Structure (SMILES): CO[C@@]1(NC(=O)Cc2cccs2)C(=O)N2C(C(=O)O)=C(COC(N)=O)CS[C@@H]21 [Cefoxitin]
MIC of antibiotic in presence of peptidomimetic 1 [1]: >16 µg/mL
MIC of antibiotic in presence of peptidomimetic 15 [1]: >16 µg/mL
MIC of antibiotic in presence of peptidomimetic 26 [1]: >16 µg/mL
MIC ([1]; no peptidomimetic): > 16 µg/mL
MIC of antibiotic in presence of peptidomimetic 1 [2]: >16 µg/mL
MIC of antibiotic in presence of peptidomimetic 15 [2]: 4 µg/mL
MIC [2]: 8 µg/mL

Structure (SMILES): COCC1=C(C(=O)O)N2C(=O)[C@@H](NC(=O)/C(=N\OC)c3csc(N)n3)[C@H]2SC1 [Cefpodoxime]
MIC of antibiotic in presence of peptidomimetic 1 [1]: >16 µg/mL
MIC of antibiotic in presence of peptidomimetic 15 [1]: >16 µg/mL
MIC of antibiotic in presence of peptidomimetic 26 [1]: >16 µg/mL
MIC ([1]; no peptidomimetic): > 16 µg/mL
MIC of antibiotic in presence of peptidomimetic 26 [2]: >16 µg/mL
MIC of antibiotic in presence of peptidomimetic 1 [2]: >16 µg/mL
MIC of antibiotic in presence of peptidomimetic 15 [2]: >16 µg/mL
MIC [2]: > 16 µg/mL

Structure (SMILES): CO/N=C(\C(=O)N[C@@H]1C(=O)N2C(C(=O)O)=C(CSC(=O)c3ccco3)CS[C@H]12)c1csc(N)n1 [Ceftiofur]
MIC of antibiotic in presence of peptidomimetic 1 [1]: >4 µg/mL
MIC of antibiotic in presence of peptidomimetic 15 [1]: >4 µg/mL
MIC of antibiotic in presence of peptidomimetic 26 [1]: >4 µg/mL
MIC ([1]; no peptidomimetic): > 4 µg/mL
MIC of antibiotic in presence of peptidomimetic 1 [2]: >4 µg/mL
MIC of antibiotic in presence of peptidomimetic 15 [2]: >4 µg/mL
MIC [2]: > 4 µg/mL

Structure (SMILES): O=C(N[C@H](CO)[C@H](O)c1ccc([N+](=O)[O-])cc1)C(Cl)Cl [Chloramphenicol]
MIC of antibiotic in presence of peptidomimetic 1 [1]: >16 µg/mL
MIC of antibiotic in presence of peptidomimetic 15 [1]: >16 µg/mL
MIC of antibiotic in presence of peptidomimetic 26 [1]: >16 µg/mL
MIC ([1]; no peptidomimetic): > 16 µg/mL
MIC of antibiotic in presence of peptidomimetic 26 [2]: ≤4 µg/mL
MIC of antibiotic in presence of peptidomimetic 1 [2]: ≤4 µg/mL
MIC of antibiotic in presence of peptidomimetic 15 [2]: ≤4 µg/mL
MIC [2]: ≤ 4 µg/mL

Structure (SMILES): CC[C@H]1OC(=O)[C@H](C)[C@@H](O[C@H]2C[C@@](C)(OC)[C@@H](O)[C@H](C)O2)[C@H](C)[C@@H](O[C@@H]2O[C@H](C)C[C@H](N(C)C)[C@H]2O)[C@](C)(O)C[C@@H](C)C(=O)[C@H](C)[C@@H](O)[C@]1(C)O [Erythromycin]
MIC of antibiotic in presence of peptidomimetic 1 [1]: >4 µg/mL
MIC of antibiotic in presence of peptidomimetic 15 [1]: >4 µg/mL
MIC of antibiotic in presence of peptidomimetic 26 [1]: >4 µg/mL
MIC ([1]; no peptidomimetic): > 4 µg/mL
MIC [2]: > 4 µg/mL
MIC of antibiotic alone [2]: >4 µg/mL

Structure (SMILES): C[C@@H](O)[C@H]1C(=O)N2C(C(=O)O)=C(SCCN=CN)C[C@H]12 [Imipenem]
MIC of antibiotic in presence of peptidomimetic 1 [1]: >8 µg/mL
MIC of antibiotic in presence of peptidomimetic 15 [1]: >8 µg/mL
MIC of antibiotic in presence of peptidomimetic 26 [1]: >8 µg/mL
MIC ([1]; no peptidomimetic): > 8 µg/mL
MIC of antibiotic in presence of peptidomimetic 26 [2]: ≤1 µg/mL
MIC of antibiotic in presence of peptidomimetic 1 [2]: ≤1 µg/mL
MIC of antibiotic in presence of peptidomimetic 15 [2]: ≤1 µg/mL
MIC [2]: ≤ 1 µg/mL

Structure (SMILES): Cc1onc(-c2ccccc2)c1C(=O)N[C@@H]1C(=O)N2[C@@H]1SC(C)(C)[C@@H]2C(=O)O [Oxacillin]
MIC of antibiotic in presence of peptidomimetic 1 [1]: >4 µg/mL
MIC of antibiotic in presence of peptidomimetic 15 [1]: >4 µg/mL
MIC of antibiotic in presence of peptidomimetic 26 [1]: >4 µg/mL
MIC ([1]; no peptidomimetic): > 4 µg/mL
MIC of antibiotic in presence of peptidomimetic 26 [2]: >4 µg/mL
MIC of antibiotic in presence of peptidomimetic 1 [2]: >4 µg/mL
MIC of antibiotic in presence of peptidomimetic 15 [2]: >4 µg/mL
MIC [2]: > 4 µg/mL

Structure (SMILES): CC1(C)S[C@@H]2[C@H](NC(=O)[C@H](C(=O)O)c3ccsc3)C(=O)N2[C@H]1C(=O)O [Ticarcillin]
MIC of antibiotic in presence of peptidomimetic 1 [1]: >64 µg/mL
MIC of antibiotic in presence of peptidomimetic 15 [1]: >64 µg/mL
MIC of antibiotic in presence of peptidomimetic 26 [1]: >64 µg/mL
MIC ([1]; no peptidomimetic): > 64 µg/mL
MIC of antibiotic in presence of peptidomimetic 1 [2]: >64 µg/mL
MIC of antibiotic in presence of peptidomimetic 15 [2]: >64 µg/mL
MIC [2]: > 64 µg/mL

Now from value to compound:

MIC of antibiotic in presence of peptidomimetic 1 [1]: ≤2 µg/mL
MIC of antibiotic in presence of peptidomimetic 15 [1]: ≤2 µg/mL
MIC of antibiotic in presence of peptidomimetic 26 [1]: ≤2 µg/mL
MIC ([1]; no peptidomimetic): 4 µg/mL
MIC of antibiotic in presence of peptidomimetic 26 [2]: ≤2 µg/mL
MIC of antibiotic in presence of peptidomimetic 1 [2]: ≤2 µg/mL
MIC of antibiotic in presence of peptidomimetic 15 [2]: ≤2 µg/mL
MIC [2]: ≤ 2 µg/mL
Structure (SMILES): C[C@H]1c2cccc(O)c2C(=O)C2=C(O)[C@]3(O)C(=O)C(C(N)=O)=C(O)[C@@H](N(C)C)[C@@H]3[C@@H](O)[C@@H]21 [Doxycycline]

MIC of antibiotic in presence of peptidomimetic 1 [1]: >2 µg/mL
MIC of antibiotic in presence of peptidomimetic 15 [1]: >2 µg/mL
MIC of antibiotic in presence of peptidomimetic 26 [1]: >2 µg/mL
MIC ([1]; no peptidomimetic): > 2 µg/mL
MIC of antibiotic in presence of peptidomimetic 26 [2]: >2 µg/mL
MIC of antibiotic in presence of peptidomimetic 1 [2]: >2 µg/mL
MIC of antibiotic in presence of peptidomimetic 15 [2]: >2 µg/mL
MIC [2]: > 2 µg/mL
Structure (SMILES): CCN1CCN(c2cc3c(cc2F)c(=O)c(C(=O)O)cn3C2CC2)CC1 [Enrofloxacin]

MIC of antibiotic in presence of peptidomimetic 1 [1]: ≤1 µg/mL
MIC of antibiotic in presence of peptidomimetic 15 [1]: 2 µg/mL
MIC of antibiotic in presence of peptidomimetic 26 [1]: ≤1 µg/mL
MIC ([1]; no peptidomimetic): 2 µg/mL
MIC of antibiotic in presence of peptidomimetic 26 [2]: >8 µg/mL
MIC of antibiotic in presence of peptidomimetic 1 [2]: >8 µg/mL
MIC of antibiotic in presence of peptidomimetic 15 [2]: >8 µg/mL
MIC [2]: > 8 µg/mL
Structure (SMILES): CNC(C)C1CCC(N)C(OC2C(N)CC(N)C(OC3OCC(C)(O)C(NC)C3O)C2O)O1 (stereo not drawn) [Gentamicin]

MIC of antibiotic in presence of peptidomimetic 1 [1]: >2 µg/mL
MIC of antibiotic in presence of peptidomimetic 15 [1]: >2 µg/mL
MIC of antibiotic in presence of peptidomimetic 26 [1]: >2 µg/mL
MIC ([1]; no peptidomimetic): > 2 µg/mL
MIC of antibiotic in presence of peptidomimetic 26 [2]: >2 µg/mL
MIC of antibiotic in presence of peptidomimetic 1 [2]: >2 µg/mL
MIC of antibiotic in presence of peptidomimetic 15 [2]: >2 µg/mL
MIC [2]: > 2 µg/mL
Structure (SMILES): CN1CCN(c2c(F)cc3c(=O)c(C(=O)O)cn4c3c2OCN4C)CC1 [Marbofloxacin]
